Reference: patent US10501481B2, “Heterocyclic compounds and their use in preventing or treating bacterial infections” (priority 2015, dated 2019)
≈ marks a conversion by molar mass, not a printed value. Read-outs that look alike come from different tables or passages of the source.

What was measured:
[1] = test system: E. cloacae P99 (AmpC); test: MIC broth microdilution, alone and synergy with ceftazidime; settings: for MIC: Enterobacter cloacae; for MIC of CAZ in combination with compound at 4 μg/mL: strain P99, compound fixed at 4 μg/mL
[2] = biological target: T1, OXA-11 (Pseudomonas aeruginosa, UniProt Q06778); test: β-lactamase inhibitory activity, nitrocefin hydrolysis; format: biochemical
T1 construct: made in house; host or cells: E. coli
Protocol: (§1) Enzyme activity was monitored by spectrophotometric measurement of nitrocefin (NCF-TOKU-E, N005) hydrolysis at 485 nm, at room temperature and in assay buffer A: 100 mM Phosphate pH7, 2% glycerol and 0.1 mg/mL Bovine serum albumin (Sigma, B4287). […] To a transparent polystyrene plate (Corning, 3628) were added in each well 5 μL DMSO or inhibitor dilutions in DMSO and 80 μL enzyme in buffer A. Plates were immediately read at 485 nm in a microplate spectrophotometer (BioTek, PowerWave HT) to enable background subtraction. After 30 min of pre-incubation at room temperature, 15 μL of NCF (200 μM final) were finally added in each well. Final enzyme concentrations were 0.1 nM (TEM-1), 0.075 nM (SHV-1), 0.4 nM (CTX-M-15), 1 nM (KPC-2), 0.2 nM (P99 AmpC), 0.2 nM (CMY-37), 0.4 nM (AmpC P. aeruginosa), 0.2 nM (OXA-1), 1.2 nM (OXA-11), 0.4 nM (OXA-15) and 0.3 nM (OXA-48). After 20 min incubation at room temperature, plates were once again read at 485 nm. Enzyme activity was obtained by subtracting the final signal by the background, and was converted to enzyme inhibition using non inhibited wells. IC50 curves were fitted to a classical Langmuir equilibrium model with Hill slope using XLFIT (IDBS).

[3] = biological target: T2, P99 AmpC (Enterobacter cloacae, UniProt P05364); test: as above; format: biochemical; settings: class (C); 30 min pre-incubation; nitrocefin 200 μM
T2 construct: made in house; host or cells: E. coli
Protocol: as §1

[4] = biological target: T3, KPC-2 (Klebsiella pneumoniae, UniProt Q9F663); test: as above; format: biochemical
T3 construct: made in house; host or cells: E. coli
Protocol: as §1

[5] = biological target: AmpC P. aeruginosa (Pseudomonas aeruginosa, UniProt P24735); test: biochemical
Protocol: Enzyme activity was monitored by spectrophotometric measurement of nitrocefin (NCF-TOKU-E, N005) hydrolysis at 485 nm, at room temperature and in assay buffer A: 100 mM Phosphate pH7, 2% glycerol and 0.1 mg/mL Bovine serum albumin (Sigma, B4287). Enzymes were cloned in E. coli expression vector, expressed and purified in house using classical procedures. To a transparent polystyrene plate (Corning, 3628) were added in each well 5 μL DMSO or inhibitor dilutions in DMSO and 80 μL enzyme in buffer A. Plates were immediately read at 485 nm in a microplate spectrophotometer (BioTek, PowerWave HT) to enable background subtraction. After 30 min of pre-incubation at room temperature, 15 μL of NCF (200 μM final) were finally added in each well. Final enzyme concentrations were 0.1 nM (TEM-1), 0.075 nM (SHV-1), 0.4 nM (CTX-M-15), 1 nM (KPC-2), 0.2 nM (P99 AmpC), 0.2 nM (CMY-37), 0.4 nM (AmpC P. aeruginosa), 0.2 nM (OXA-1), 1.2 nM (OXA-11), 0.4 nM (OXA-15) and 0.3 nM (OXA-48). After 20 min incubation at room temperature, plates were once again read at 485 nm. Enzyme activity was obtained by subtracting the final signal by the background, and was converted to enzyme inhibition using non inhibited wells. IC50 curves were fitted to a classical Langmuir equilibrium model with Hill slope using XLFIT (IDBS).

[6] = test system: E. coli RGN238 (OXA-1); test: MIC broth microdilution, alone and synergy with ceftazidime; settings: Escherichia coli
[7] = test system: K. pneumoniae BAA-1898 (TEM-1, SHV-11, SHV-12, KPC-2); test: microbe, parasite or virus in culture; format: cell-based; settings: for MIC: Klebsiella pneumoniae; for MIC of CAZ in combination with compound at 4 μg/mL: strain BAA-1898, compound fixed at 4 μg/mL
[8] = biological target: T4, CTX-M-15 (Escherichia coli, UniProt Q9EXV5); test: β-lactamase inhibitory activity, nitrocefin hydrolysis; format: biochemical
T4 construct: made in house; host or cells: E. coli
Protocol: as §1

[9] = test system: K. pneumoniae 6299 (TEM-1, SHV-11, OXA-163); test: MIC broth microdilution, alone and synergy with ceftazidime; settings: for MIC: Klebsiella pneumoniae
[10] = biological target: T5, OXA-48 (Klebsiella pneumoniae, UniProt Q6XEC0); test: β-lactamase inhibitory activity, nitrocefin hydrolysis; format: biochemical
T5 construct: made in house; host or cells: E. coli
Protocol: as §1

[11] = biological target: T6, TEM-1 (Escherichia coli, UniProt P62593); test: as above; format: biochemical; settings: class (A); 30 min pre-incubation; nitrocefin 200 μM
T6 construct: made in house; host or cells: E. coli
Protocol: as §1

[12] = biological target: T7, OXA-15 (Pseudomonas aeruginosa, UniProt Q51574); test: as above; format: biochemical
T7 construct: made in house; host or cells: E. coli
Protocol: as §1

[13] = test system: E. coli 190317 (TEM-1, SHV-12, CTX-M-15, OXA-1); test: MIC broth microdilution, alone and synergy with ceftazidime; settings: for MIC: Escherichia coli; for MIC of CAZ in combination with compound at 4 μg/mL: strain 190317, compound fixed at 4 μg/mL
[14] = test system: P. aeruginosa CIP107051 (TEM-24); test: as above; settings: for MIC: Pseudomonas aeruginosa; for MIC of CAZ in combination with compound at 4 μg/mL: strain CIP107051, compound fixed at 4 μg/mL
[15] = biological target: T8, OXA-1 (Escherichia coli, UniProt P13661); test: β-lactamase inhibitory activity, nitrocefin hydrolysis; format: biochemical
T8 construct: made in house; host or cells: E. coli
Protocol: as §1

[16] = test system: P. aeruginosa CIP105250 (OXA-15); test: MIC broth microdilution, compounds alone; settings: Pseudomonas aeruginosa, CIP105250, read-out: MIC compounds of the invention alone
[17] = test system: E. coli 131119 (TEM-1, OXA-48); test: MIC broth microdilution, alone and synergy with ceftazidime; settings: Escherichia coli
[18] = biological target: T9, SHV-1 (Klebsiella pneumoniae, UniProt P0AD64); test: β-lactamase inhibitory activity, nitrocefin hydrolysis; format: biochemical
T9 construct: made in house; host or cells: E. coli
Protocol: as §1

[19] = test system: K. pneumoniae 200047 (TEM-1, SHV-32, CTX-M-15, OXA-1); test: MIC broth microdilution, alone and synergy with ceftazidime; settings: Klebsiella pneumoniae, read-out: MIC CAZ
[20] = test system: E. coli UFR74 (SHV-1, DHA-1); test: as above; settings: Escherichia coli, read-out: MIC CAZ
[21] = test system: E. coli UFR18 (CTX-M-15, OXA-204); test: as above; settings: Escherichia coli, read-out: MIC CAZ
[22] = test system: E. coli UFR52 (TEM-1, SHV-12, IMP-8); test: as above; settings: Escherichia coli, read-out: MIC CAZ
[23] = test system: K. pneumoniae UFR24 (TEM-1, SHV-2, SHV-11, OXA-1, OXA-48, OXA-47); test: as above; settings: Klebsiella pneumoniae, read-out: MIC CAZ
[24] = test system: K. pneumoniae UFR68 (TEM-1, SHV-11, CTX-M-15, KPC-3); test: as above; settings: Klebsiella pneumoniae, read-out: MIC CAZ
[25] = test system: C. murliniae 210102 (VIM-4); test: as above; settings: read-out: MIC CAZ
[26] = test system: P. aeruginosa UFR90 (derepressed AmpC, OprD−); test: as above; settings: Pseudomonas aeruginosa, read-out: MIC CAZ
[27] = test system: E. cloacae 260508 (TEM-1, CTX-M-15); test: as above; settings: Enterobacter cloacae, read-out: MIC CAZ
[28] = test system: K. oxytoca UFR21 (TEM-1, CTX-M-15, OXA-48); test: as above; settings: Klebsiella oxytoca, read-out: MIC CAZ
[29] = test system: E. cloacae UFR38 (CTX-M-15, NDM-1); test: as above; settings: Enterobacter cloacae, read-out: MIC CAZ
[30] = test system: E. coli UFR61O (TEM-1, KPC-2); test: as above; settings: Escherichia coli, read-out: MIC CAZ
[31] = test system: E. coli UFR32 (TEM-1, VEB-1, OXA-10); test: as above; settings: Escherichia coli, read-out: MIC CAZ
[32] = test system: P. aeruginosa UFR92 (derepressed AmpC, OprD−); test: as above; settings: Pseudomonas aeruginosa, read-out: MIC CAZ
[33] = test system: K. pneumoniae 160143 (TEM-1, SHV-1, CTX-M-15, KPC-2, OXA-1); test: as above; settings: Klebsiella pneumoniae, read-out: MIC CAZ
[34] = test system: P. aeruginosa UFR35 (OXA-23); test: as above; settings: Pseudomonas aeruginosa, read-out: MIC CAZ
[35] = test system: E. cloacae UFR70 (TEM-1, CTX-M-15, CMY-2, OXA-1, Porin loss); test: as above; settings: Enterobacter cloacae, read-out: MIC CAZ
[36] = test system: K. pneumoniae UFR77 (CMY-2); test: as above; settings: Klebsiella pneumoniae, read-out: MIC CAZ
[37] = read-out: MIC compounds of the invention alone
[38] = BAA1898, read-out: MIC compounds of the invention alone
[39] = CIP107051, read-out: MIC compounds of the invention alone

T4 sequence (Q9EXV5 entry or part of it): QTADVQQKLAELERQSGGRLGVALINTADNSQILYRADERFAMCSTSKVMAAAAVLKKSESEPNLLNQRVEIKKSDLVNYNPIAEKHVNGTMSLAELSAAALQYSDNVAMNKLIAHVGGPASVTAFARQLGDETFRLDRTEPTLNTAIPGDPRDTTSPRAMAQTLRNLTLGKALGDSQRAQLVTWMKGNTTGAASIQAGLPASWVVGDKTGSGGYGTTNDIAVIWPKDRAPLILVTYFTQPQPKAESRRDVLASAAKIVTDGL
T3 sequence (Q9F663 25-293 limits assumed): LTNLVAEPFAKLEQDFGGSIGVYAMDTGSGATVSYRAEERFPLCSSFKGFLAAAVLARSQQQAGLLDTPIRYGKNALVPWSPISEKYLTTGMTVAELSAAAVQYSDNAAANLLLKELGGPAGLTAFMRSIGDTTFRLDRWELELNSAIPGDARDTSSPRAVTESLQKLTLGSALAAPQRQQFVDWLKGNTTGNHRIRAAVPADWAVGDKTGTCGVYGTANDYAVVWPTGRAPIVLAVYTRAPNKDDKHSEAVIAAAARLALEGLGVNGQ
T8 sequence (P13661 26-276): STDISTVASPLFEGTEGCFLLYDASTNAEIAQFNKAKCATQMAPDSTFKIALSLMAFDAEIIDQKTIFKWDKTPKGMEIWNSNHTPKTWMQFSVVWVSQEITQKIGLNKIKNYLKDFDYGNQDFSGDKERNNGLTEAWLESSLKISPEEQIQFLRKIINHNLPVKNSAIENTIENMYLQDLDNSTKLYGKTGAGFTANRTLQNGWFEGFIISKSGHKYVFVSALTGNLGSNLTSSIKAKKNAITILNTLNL
T9 sequence (P0AD64 22-286): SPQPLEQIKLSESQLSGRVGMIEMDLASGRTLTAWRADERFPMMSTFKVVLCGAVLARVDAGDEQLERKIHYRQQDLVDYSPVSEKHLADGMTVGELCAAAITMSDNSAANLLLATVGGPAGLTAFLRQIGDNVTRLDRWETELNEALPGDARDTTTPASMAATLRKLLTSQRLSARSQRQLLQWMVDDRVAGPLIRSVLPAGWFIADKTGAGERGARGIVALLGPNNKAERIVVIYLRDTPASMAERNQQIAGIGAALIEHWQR
T7 sequence (Q51574 22-275): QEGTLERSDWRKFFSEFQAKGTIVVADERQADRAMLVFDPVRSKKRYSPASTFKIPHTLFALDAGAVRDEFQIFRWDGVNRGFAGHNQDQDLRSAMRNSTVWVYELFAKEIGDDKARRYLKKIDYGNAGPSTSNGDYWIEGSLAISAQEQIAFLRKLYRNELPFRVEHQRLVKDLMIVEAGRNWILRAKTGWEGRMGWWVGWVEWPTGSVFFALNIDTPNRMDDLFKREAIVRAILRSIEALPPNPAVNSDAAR
T6 sequence (P62593 24-286 limits assumed): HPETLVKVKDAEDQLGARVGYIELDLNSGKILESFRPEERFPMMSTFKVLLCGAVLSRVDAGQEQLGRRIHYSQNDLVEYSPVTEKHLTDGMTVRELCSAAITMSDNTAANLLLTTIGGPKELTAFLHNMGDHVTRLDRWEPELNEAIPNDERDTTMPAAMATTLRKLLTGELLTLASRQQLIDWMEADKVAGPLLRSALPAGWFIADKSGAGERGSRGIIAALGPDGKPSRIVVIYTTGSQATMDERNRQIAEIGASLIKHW
T5 sequence (Q6XEC0 23-265 limits assumed): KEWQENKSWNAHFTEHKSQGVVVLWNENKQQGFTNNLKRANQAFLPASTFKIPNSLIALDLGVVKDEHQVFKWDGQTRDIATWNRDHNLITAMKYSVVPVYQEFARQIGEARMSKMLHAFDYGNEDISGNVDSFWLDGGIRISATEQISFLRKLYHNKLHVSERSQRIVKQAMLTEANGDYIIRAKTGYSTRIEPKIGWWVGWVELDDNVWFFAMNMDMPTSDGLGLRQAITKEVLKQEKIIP
T1 sequence (Q06778 21-266): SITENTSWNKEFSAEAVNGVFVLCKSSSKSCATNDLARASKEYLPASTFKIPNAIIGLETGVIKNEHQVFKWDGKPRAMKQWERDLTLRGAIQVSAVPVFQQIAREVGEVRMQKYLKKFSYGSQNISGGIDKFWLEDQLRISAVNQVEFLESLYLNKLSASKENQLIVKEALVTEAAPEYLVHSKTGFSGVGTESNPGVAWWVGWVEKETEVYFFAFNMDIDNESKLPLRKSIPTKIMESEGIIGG
Sequence of AmpC P. aeruginosa (P24735 27-397): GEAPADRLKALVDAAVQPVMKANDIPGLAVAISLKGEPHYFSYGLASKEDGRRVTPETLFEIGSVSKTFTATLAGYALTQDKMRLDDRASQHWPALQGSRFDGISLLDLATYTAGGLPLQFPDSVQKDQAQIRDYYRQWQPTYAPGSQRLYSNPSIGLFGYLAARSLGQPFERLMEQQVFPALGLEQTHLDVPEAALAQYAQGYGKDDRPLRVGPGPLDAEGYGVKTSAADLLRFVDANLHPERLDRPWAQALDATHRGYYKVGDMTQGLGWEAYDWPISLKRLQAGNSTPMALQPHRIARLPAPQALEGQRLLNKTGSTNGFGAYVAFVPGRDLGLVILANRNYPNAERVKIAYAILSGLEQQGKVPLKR
T2 sequence (P05364 21-381): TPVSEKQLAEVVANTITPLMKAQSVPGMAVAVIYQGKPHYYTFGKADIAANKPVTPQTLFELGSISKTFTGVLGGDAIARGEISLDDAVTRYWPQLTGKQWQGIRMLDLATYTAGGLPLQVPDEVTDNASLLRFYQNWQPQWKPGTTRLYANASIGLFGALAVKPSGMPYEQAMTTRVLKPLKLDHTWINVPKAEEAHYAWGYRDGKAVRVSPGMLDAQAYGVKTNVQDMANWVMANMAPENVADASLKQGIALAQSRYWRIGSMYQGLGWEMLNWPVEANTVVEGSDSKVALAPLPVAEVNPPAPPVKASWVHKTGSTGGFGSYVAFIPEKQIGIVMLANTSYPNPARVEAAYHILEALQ

CC(C)(C)OC(=O)NCCn1c2c(sc1=O)C1CN(C2)C(=O)N1OS(=O)(=O)[O-].[Na+] (stereo not drawn) [Example 3, Sodium [5-(2-(tert-butoxycarbonylamino)ethyl)-4,9-dioxo-3-thia-5,8,10-triaza-tricyclo[6.2.1.0^2.6]undec-2(6)-en-10-yl] sulfate]
MIC [1, 37]: > 32 µg/mL | MIC of CAZ in combination with compound at 4 μg/mL [1]: 128 µg/mL | IC50 [2]: 16 nM | IC50 [3]: 5.9 nM | IC50 [4]: 3.4 nM | IC50 [5]: 200 nM | MIC [6, 37]: > 32 µg/mL | MIC [7, 38]: > 32 µg/mL | MIC of CAZ in combination with compound at 4 μg/mL [7]: >128 µg/mL | IC50 [8]: 0.49 nM | MIC [9, 37]: > 32 µg/mL | IC50 [10]: 1.7 nM | IC50 [11]: 5.8 nM | IC50 [12]: 97 nM | MIC [13, 37]: > 32 µg/mL | MIC of CAZ in combination with compound at 4 μg/mL [13]: 32 µg/mL | MIC [14, 39]: > 32 µg/mL | MIC of CAZ in combination with compound at 4 μg/mL [14]: 64 µg/mL | IC50 [15]: 130 nM | MIC [16]: > 32 µg/mL | MIC [17, 37]: > 32 µg/mL | IC50 [18]: 20 nM

CC(C)(O/N=C(\C(=O)N[C@@H]1C(=O)N2C(C(=O)[O-])=C(C[n+]3ccccc3)CS[C@H]12)c1csc(N)n1)C(=O)O [CAZ, ceftazidime, reference compound]
MIC ([1]; read-out: MIC CAZ): 128 µg/mL | MIC [19]: 128 µg/mL | MIC [20]: 64 µg/mL | MIC [21]: > 128 µg/mL | MIC [22]: > 128 µg/mL | MIC ([6]; read-out: MIC CAZ): 0.5 µg/mL | MIC ([7]; BAA1898, read-out: MIC CAZ): 256 µg/mL (≈ 468 µM) | MIC ([9]; read-out: MIC CAZ): 256 µg/mL | MIC [23]: > 128 µg/mL | MIC [24]: > 128 µg/mL | MIC [25]: > 128 µg/mL | MIC [26]: 64 µg/mL | MIC ([13]; read-out: MIC CAZ): 128 µg/mL | MIC ([14]; CIP107051, read-out: MIC CAZ): 256 µg/mL | MIC [27]: 128 µg/mL | MIC [28]: 128 µg/mL | MIC [29]: > 128 µg/mL | MIC [30]: 128 µg/mL | MIC [31]: > 128 µg/mL | MIC [32]: 32 µg/mL | MIC [33]: 128 µg/mL | MIC [34]: 2 µg/mL | MIC [35]: > 128 µg/mL | MIC ([17]; read-out: MIC CAZ): 0.5 µg/mL | MIC [36]: 64 µg/mL

N=C(N)NCCn1c2c(sc1=O)C1CN(C2)C(=O)N1OS(=O)(=O)[O-].[Na+] (stereo not drawn) [Example 6, Sodium and 2,2,2-trifluoroacetate [5-(2-quanidiniumethyl)-4,9-dioxo-3-thia-5,8,10-triaza-tricyclo[6.2.1.0^2.6]undec-2(6)-en-10-yl] sulfate]
MIC [1, 37]: 1 µg/mL | MIC of CAZ in combination with compound at 4 μg/mL [1]: <0.25 µg/mL | IC50 [2]: 130 nM | IC50 [3]: 380 nM | IC50 [4]: 5.7 nM | IC50 [5]: 1500 nM | MIC [6, 37]: 4 µg/mL | MIC [7, 38]: 16 µg/mL | MIC of CAZ in combination with compound at 4 μg/mL [7]: ≤0.125 µg/mL | IC50 [8]: 5.4 nM | MIC [9, 37]: > 32 µg/mL | MIC of CAZ in combination with compound at 4 μg/mL ([9]; strain 6299, compound fixed at 4 μg/mL): ≤0.125 µg/mL | IC50 [10]: 1.6 nM | IC50 [11]: 7 nM | IC50 [12]: 120 nM | MIC [13, 37]: 1 µg/mL | MIC of CAZ in combination with compound at 4 μg/mL [13]: <0.25 µg/mL | MIC [14, 39]: 8 µg/mL | MIC of CAZ in combination with compound at 4 μg/mL [14]: 8 µg/mL | IC50 [15]: 1700 nM | MIC [16]: 8 µg/mL | IC50 [18]: 12 nM
